In one test the test system is A549. Put plainly: cells. The note with it: Homo sapiens, A549, 24 h.
Test [1] deals with MDA-MB-231. Put plainly: cells. The note with it: Homo sapiens, MDA-MB-231, 24 h.
Description: Antiproliferative activity against human MDA-MB-231 cells assessed as reduction in cell viability incubated for 24 hrs by MTT assay
For test [2], the target named is Serine/threonine-protein kinase mTOR (Homo sapiens, UniProt P42345). Put plainly: Inhibition of mTOR (unknown origin).
Test [3] has as its system MDA-MB-231. Put plainly: Induction of autophagy in human MDA-MB-231 cells assessed as MDC positive ratio at 1 uM incubated for 6 hrs by MDC staining based flow cytometry analysis. It counts as functional. On the technique in general: In flow cytometry, cells or beads pass a laser one at a time.
A further test deals with MDA-MB-468. Put plainly: cells. Particulars: Homo sapiens, MDA-MB-468, 24 h.

Description for A549: Antiproliferative activity against human A549 cells assessed as reduction in cell viability incubated for 24 hrs by MTT assay
Description for MDA-MB-468: Antiproliferative activity against human MDA-MB-468 cells assessed as reduction in cell viability incubated for 24 hrs by MTT assay

Take `CN(Cc1ccccc1)C(=O)Nc1ccc(C(F)(F)F)cc1`: the IC50 (in general, the midpoint of a concentration-inhibition curve) in the test on A549 was found to be 28.8 µM; in the test on MDA-MB-231 [1], 21.2 µM; in test [2] it was 10.1 µM; in the test on MDA-MB-468, 21.9 µM. Moreover, the Activity in the test on MDA-MB-231 [3] came out at 7.34%.

Regarding `CC(NC(=O)Nc1cccc(F)c1)c1ccccc1` (centres undefined), the IC50 in the test with A549 was determined as 33 µM; in the test with MDA-MB-231 [1], 34.1 µM; in test [2] it was 16.9 µM; with MDA-MB-468, 31.9 µM. Further, the Activity in the test with MDA-MB-231 [3] is 8.29%.

For the compound `C/C(=N\NC(=O)c1cccc(I)c1)c1ccc(C(=O)O)cc1`, the half-maximal inhibitory concentration (IC50) came to 8.91 µM with A549, 8.96 µM in the test on MDA-MB-231 [1], 0.82 µM in test [2] and 6.37 µM in the test with MDA-MB-468. Also, in the test with MDA-MB-231 [3], the Activity was found to be 17.2%.

Regarding `Cc1ccc(C(=O)NCCc2ccc(O)cc2)cc1Br`, the half-inhibitory concentration (IC50) with A549 was 34 µM; in the test on MDA-MB-231 [1], 41.7 µM; in test [2], greater than 30 µM; with MDA-MB-468 it was 33.7 µM. Further, in the test on MDA-MB-231 [3], the Activity was determined as 11.23%.

For the compound `C/C(=N\NC(=O)c1ccc(C)c(I)c1)c1ccc(C(F)(F)F)cc1`, the IC50 with A549 amounted to 9.46 µM; in the test with MDA-MB-231 [1], 8.3 µM; in test [2], 1.98 µM; with MDA-MB-468, 8.76 µM. The Activity in the test with MDA-MB-231 [3] is listed as 14.89%.

Take `C/C(=N\NC(=O)c1cccc(Br)c1)c1ccc(C(=O)NN2CCOCC2)cc1`: the IC50 turned out to be 11.2 µM with A549, 8.11 µM with MDA-MB-231 [1], 4.84 µM in test [2] and 8.17 µM in the test with MDA-MB-468. Further, the Activity in the test with MDA-MB-231 [3] turned out to be 17.2%.

As to `Cc1ccc(C(=O)Nc2cc3ccccc3cn2)cc1Br`, the IC50 with A549 amounted to 26.4 µM; in the test with MDA-MB-231 [1] it was 32.1 µM; in test [2], 15.3 µM; with MDA-MB-468, 25.9 µM. In the test on MDA-MB-231 [3], the Activity is 11.8%.

As to `O=C(NCc1ccc(O)cc1)Nc1ccc(C(F)(F)F)cc1`, the half-inhibitory concentration (IC50) in the test with A549 came out at 36.7 µM; with MDA-MB-231 [1] it was 22.9 µM; in test [2], 10.3 µM; with MDA-MB-468, 17.5 µM. The Activity in the test with MDA-MB-231 [3] came out at 8.29%.

With `O=C(NCc1ccc(O)cc1)Nc1cccc(F)c1`, the IC50 with A549 is 22.3 µM; with MDA-MB-231 [1], 27.7 µM; in test [2], greater than 30 µM; with MDA-MB-468 it was 34.1 µM. Also, the Activity in the test with MDA-MB-231 [3] came to 8.31%.

Consider `O=C(NCc1cc(C(F)(F)F)cc(C(F)(F)F)c1)Nc1ccc(C(F)(F)F)cc1`, for which the concentration for half-maximal inhibition (IC50) in the test on A549 was found to be 13.3 µM; in the test with MDA-MB-231 [1], 16.9 µM; in test [2] it was 20.4 µM; in the test with MDA-MB-468, 17.9 µM. Besides, the Activity with MDA-MB-231 [3] is 9.62%.

As to `C/C(=N\NC(=O)c1cccc(I)c1)c1ccncc1`, the concentration for half-maximal inhibition (IC50) with A549 came to 9.84 µM; in the test on MDA-MB-231 [1], 12.5 µM; in test [2], 1.17 µM; in the test with MDA-MB-468, 12.1 µM. Further, the Activity in the test with MDA-MB-231 [3] was 15.79%.

On to `C/C(=N\NC(=O)c1cccc(Br)c1)c1ccc(N)cc1`, for which the IC50 is 13 µM with A549, 10.9 µM with MDA-MB-231 [1], 6.21 µM in test [2] and 13.1 µM in the test with MDA-MB-468. The Activity with MDA-MB-231 [3] is reported as 15.81%.

Regarding `C/C(=N\NC(=O)c1ccc(C)c(F)c1)c1ccc(N)cc1`, the IC50 in the test on A549 came out at 12 µM; in the test on MDA-MB-231 [1], 8.4 µM; in test [2], 4.32 µM; in the test on MDA-MB-468, 9.55 µM. Besides, in the test with MDA-MB-231 [3], the Activity amounted to 15.44%.

As for `C/C(=N\NC(=O)c1cccc(I)c1)c1ccc(N)cc1`, the IC50 in the test with A549 was 13 µM; in the test on MDA-MB-231 [1], 13.1 µM; in test [2] it was 4.79 µM; in the test on MDA-MB-468, 8.3 µM. The Activity with MDA-MB-231 [3] was found to be 15.27%.

`C/C(=N\NC(=O)c1ccc(C)c(Br)c1)c1ccc(O)cc1`: the IC50 with A549 came out at 10.1 µM; in the test with MDA-MB-231 [1], 6.71 µM; in test [2], 2.01 µM; in the test on MDA-MB-468, 8.46 µM. Also, in the test with MDA-MB-231 [3], the Activity is recorded as 19.27%.

Take `O=C(NCc1ccc(O)cc1)Nc1cccc(Cl)c1`: the IC50 in the test with A549 was 31.2 µM; in the test on MDA-MB-231 [1] it was 19.5 µM; in test [2] it was 27.1 µM; with MDA-MB-468, 25.9 µM. Also, in the test with MDA-MB-231 [3], the Activity was 9.22%.

With `O=C(Nc1cccc(F)c1)Nc1nc2ccccc2[nH]1`, the IC50 was determined as 19.8 µM with A549, 19 µM with MDA-MB-231 [1], 4.93 µM in test [2] and 24.1 µM with MDA-MB-468. For the same compound, the Activity in the test on MDA-MB-231 [3] was determined as 8.32%.

Consider `C/C(=N\NC(=O)c1cccc(F)c1)c1ccc(C(=O)Nc2nc3ccccc3[nH]2)cc1`, for which the half-maximal inhibitory concentration (IC50) with A549 worked out at 7.81 µM; in the test on MDA-MB-231 [1] it was 5.03 µM; in test [2], 0.83 µM; in the test on MDA-MB-468, 6.06 µM. The Activity in the test on MDA-MB-231 [3] was determined as 22.34%.

In the case of `C/C(=N\NC(=O)c1ccc(C)c(I)c1)c1ccc(N)cc1`, the IC50 turned out to be 9.93 µM in the test with A549, 8.46 µM in the test with MDA-MB-231 [1], 5.08 µM in test [2] and 9.54 µM in the test with MDA-MB-468. In addition, in the test on MDA-MB-231 [3], the Activity worked out at 14.28%.

Regarding `Cc1ccc(C(=O)NCc2ccc(O)cc2)cc1Br`, the IC50 with A549 was 33.8 µM; with MDA-MB-231 [1], 33.4 µM; in test [2], greater than 30 µM; in the test on MDA-MB-468, 41.9 µM. The Activity with MDA-MB-231 [3] came out at 12.73%.

Turning to `O=C(Nc1ccc(C(F)(F)F)cc1)Nc1nc2ccccc2[nH]1`, the IC50 with A549 worked out at 23.5 µM; with MDA-MB-231 [1], 22.8 µM; in test [2], 23.7 µM; with MDA-MB-468, 23.7 µM. The Activity in the test with MDA-MB-231 [3] is on record as 8.2%.

`O=C(NCc1cccc(Br)c1)Nc1ccc(C(F)(F)F)cc1`: the concentration for half-maximal inhibition (IC50) in the test on A549 is 26.4 µM; in the test with MDA-MB-231 [1], 20.8 µM; in test [2], 15.8 µM; with MDA-MB-468, 24.3 µM. In addition, the Activity with MDA-MB-231 [3] is 9.1%.

Turning to `C/C(=N\NC(=O)c1cccc(F)c1)c1ccc(O)cc1O`, the half-maximal inhibitory concentration (IC50) with A549 stood at 15.4 µM; in the test with MDA-MB-231 [1] it was 10.8 µM; in test [2], 4.22 µM; in the test with MDA-MB-468 it was 9.24 µM. In addition, in the test on MDA-MB-231 [3], the Activity is on record as 15.04%.

Consider `Cc1ccc(C(=O)Nc2ccc3ccccc3n2)cc1Br`, for which the IC50 amounted to 31.6 µM in the test with A549, 38 µM in the test with MDA-MB-231 [1], 17.9 µM in test [2] and 27.5 µM in the test with MDA-MB-468. The Activity in the test with MDA-MB-231 [3] is given as 13.81%.

On to `CO[C@H]1C[C@@H]2CC[C@@H](C)[C@@](O)(O2)C(=O)C(=O)N2CCCC[C@H]2C(=O)O[C@H]([C@H](C)C[C@@H]2CC[C@@H](O)[C@H](OC)C2)CC(=O)[C@H](C)/C=C(\C)[C@@H](O)[C@@H](OC)C(=O)[C@H](C)C[C@H](C)/C=C/C=C/C=C/1C` [SIROLIMUS], for which the figures for the concentration for half-maximal inhibition (IC50) in the test with A549, with MDA-MB-231 [1] and with MDA-MB-468 were 30.7 µM, 35.8 µM and 37.2 µM, respectively. For the same compound, the Activity in the test on MDA-MB-231 [3] was found to be 31.03%.

Regarding `CC(NC(=O)Nc1cccc(Cl)c1)c1ccccc1` (centres undefined), the half-maximal inhibitory concentration (IC50) with A549 was 24.8 µM; in the test with MDA-MB-231 [1] it was 22.6 µM; in test [2], greater than 30 µM; in the test on MDA-MB-468, 23.7 µM. The Activity in the test with MDA-MB-231 [3] stood at 9.25%.

Take `C/C(=N\NC(=O)c1cccc(Br)c1)c1ccc(C(=O)Nc2cc[nH]n2)cc1`: the IC50 in the test with A549 was found to be 10.5 µM; in the test with MDA-MB-231 [1], 9.24 µM; in test [2], 1.29 µM; in the test with MDA-MB-468, 8.32 µM. Also, the Activity in the test on MDA-MB-231 [3] is reported as 19.78%.

As to `C/C(=N\NC(=O)c1ccc(C)c(Br)c1)c1ccncc1`, the IC50 in the test on A549 amounted to 12.4 µM; with MDA-MB-231 [1] it was 11 µM; in test [2] it was 5.24 µM; with MDA-MB-468 it was 8.69 µM. For the same compound, in the test on MDA-MB-231 [3], the Activity worked out at 15.26%.

Source of the values: ChEMBL document CHEMBL4819087, “Identification and optimization of 3-bromo-N'-(4-hydroxybenzylidene)-4-methylbenzohydrazide derivatives as mTOR inhibitors that induce autophagic cell death and apoptosis in triple-negative breast cancer” (Eur J Med Chem, 2021).
